Measurements reported in US20190216089A1, “COMPOUNDED HERBICIDAL COMPOSITION CONTAINING SHUANGZUOCAOTONG AND METHOD OF USING THE SAME” (priority 2016, published 2019).

Tests used:
Capsella bursa-pastoris = experiment: Pot-culture greenhouse foliage treatment, fresh weight inhibition (Gowing method); assay type: in vivo; conditions: foliage spray
Experimental: (§1) The above weeds were cultivated by a pot culture method. […] Full and uniform weed seeds were selected, soaked in warm water at 25° C. for 6 hours, and germinated in a 28° C. biochemical incubator (darkness). […] A certain amount of water was added to the enamel pan regularly to keep the soil moist.
(§2) Since these several agents were soluble in acetone, any two TCs were dissolved in acetone, and diluted with an aqueous solution containing 0.1% emulsifier T-80. The dilution was performed as required.
(§3) A ratio of glufosinate ammonium or glyphosate and shuangzuocaotong and amounts thereof in each group depends on the characteristics and toxicity of the two agents, as well as the main application purpose of a corresponding formulation. Glyphosate is a non-selective herbicide and is absorbed by foliage and translocated to various parts of the plant, which is different from the mechanism of action of glufosinate ammonium, i.e., killing roots. […] The control spectrum of Shuangzuocaotong is complementary to that of glyphosate or that of glufosinate ammonium to some extent. […] Based on the pre-tests in this study, the doses of glyphosate, glufosinate ammonium, and Shuangzuocaotong applied alone and in combination were shown in the Table 1 and Table 2, and a total 15 groups were designed, respectively. Water containing the solvent and emulsifying agent same with the above groups but free of the agents was used as a blank control.
(§4) 3 pots with 20 weed seeds per pot were treated in one treatment with […] per treatment, that is, a total of 60 weeds were treated in one treatment.
(§5) The agents were used for only once in the experiment. In the stage of weeds with 2 leaves and 1 core, the weeds were thinned out to maintain 15 weeds per pot and 45 weeds for each treatment, then continued to be cultured until the four true leaves of Descurainia sophia and Capsella bursa-pastoris emerged, and treated.
(§6) The well-cultured weeds were evenly placed on a platform with an area of 0.5 m^2, and a solution of agents was sprayed on the foliage thereof by the 3WP-2000-type walking spray tower at a dosage of 30 kg/ha and at a spray pressure of 0.3 MPa. After all the solution was sprayed, the valve was closed. After 30 seconds, the door of the spray tower was opened, and the nutritional bowl was taken out. Then the valve was opened, and the spray tube was cleaned by spraying 50 ml of water.
(§7) A pot-culture method was employed. For the cultivation of weeds, please refer to the Section 1.1, and “Pesticide guidelines for laboratory bioactivity tests—herbicides”. As to a method for applying agents, please refer to the section 2.3.2, that is, a method for foliage treatment was employed.
(§8) A method for investigating absolute number was employed, wherein whole seedlings of survival weeds were cut off with a blade along the soil surface, and the fresh weight of the weeds was weighed with an analytical balance. For dead weeds, the fresh weight thereof was zero.
(§9) The investigation was performed after 20 days of the treatment for only once.

Descurainia Sophia = experiment: as above; assay type: in vivo; conditions: foliage spray
Experimental: as §1, §2, §3, §4, §5, §6, §7, §8, §9

[1] = dose 67.5 g/hm^2, after 20 days (Table 2)
[2] = dose 90 g/hm^2, after 20 days (Table 2)
[3] = dose 112.5 g/hm^2, after 20 days (Table 2)
[4] = dose 1125 g/hm^2, after 20 days

CP(=O)(O)CCC(N)C(=O)O.N (racemic) [Glufosinate ammonium, ammonium-DL-homoalanin-4-yl(methyl)phosphinate]
actual fresh weight inhibition rate (Capsella bursa-pastoris; dose 300 g/hm^2, after 20 days): 48.2%
actual fresh weight inhibition rate (Capsella bursa-pastoris; dose 450 g/hm^2, after 20 days): 73.2%
actual fresh weight inhibition rate (Capsella bursa-pastoris; dose 600 g/hm^2, after 20 days): 93.5%
actual fresh weight inhibition rate (Descurainia Sophia; dose 300 g/hm^2, after 20 days): 49.8%
actual fresh weight inhibition rate (Descurainia Sophia; dose 450 g/hm^2, after 20 days): 71.6%
actual fresh weight inhibition rate (Descurainia Sophia; dose 600 g/hm^2, after 20 days): 92.6%

Cc1nn(C)cc1C(=O)Oc1c(C(=O)c2ccc(C(F)(F)F)cc2S(C)(=O)=O)c(C)nn1C [Shuangzuocaotong]
actual fresh weight inhibition rate (Capsella bursa-pastoris; dose 15 g/hm^2, after 20 days): 53.2%
actual fresh weight inhibition rate (Capsella bursa-pastoris; dose 30 g/hm^2, after 20 days): 75.2%
actual fresh weight inhibition rate (Capsella bursa-pastoris; dose 45 g/hm^2, after 20 days): 91.3%
actual fresh weight inhibition rate (Capsella bursa-pastoris; [1]): 54.1%
actual fresh weight inhibition rate (Capsella bursa-pastoris; [2]): 72.4%
actual fresh weight inhibition rate (Capsella bursa-pastoris; [3]): 93.5%
actual fresh weight inhibition rate (Descurainia Sophia; dose 15 g/hm^2, after 20 days): 54.2%
actual fresh weight inhibition rate (Descurainia Sophia; dose 30 g/hm^2, after 20 days): 76.2%
actual fresh weight inhibition rate (Descurainia Sophia; dose 45 g/hm^2, after 20 days): 90.2%
actual fresh weight inhibition rate (Descurainia Sophia; [1]): 53.3%
actual fresh weight inhibition rate (Descurainia Sophia; [2]): 74.3%
actual fresh weight inhibition rate (Descurainia Sophia; [3]): 86.2%

O=C(O)CNCP(=O)(O)O [glyphosate, N-(phosphonomethyl)glycine]
actual fresh weight inhibition rate (Capsella bursa-pastoris; dose 675 g/hm^2, after 20 days): 53.2%
actual fresh weight inhibition rate (Capsella bursa-pastoris; dose 900 g/hm^2, after 20 days): 74.6%
actual fresh weight inhibition rate (Capsella bursa-pastoris; [4]): 92.4%
actual fresh weight inhibition rate (Descurainia Sophia; dose 675 g/hm^2, after 20 days): 55.2%
actual fresh weight inhibition rate (Descurainia Sophia; dose 900 g/hm^2, after 20 days): 73.1%
actual fresh weight inhibition rate (Descurainia Sophia; [4]): 91.4%
